From ChEMBL document CHEMBL1201862, “PubChem BioAssay data set” (2004)
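All cell lines were grown in 96-well plates and treated with compound for 48 hours. At the GI50, growth is halved.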 Active and inactive are the calls of the source. Rule as the data show it: active = GI50 up to about 1.1 µM and inactive = higher.

Legend:
Assay in all cases: NCI tumour cell line growth inhibition, 48 h
786-0 = system: 786-0
LOX IMVI = system: LOX IMVI
HOP-62 = system: HOP-62
COLO 205 = system: COLO 205
TK-10 = system: TK-10
BT-549 = system: BT-549
RPMI-8226 = system: RPMI-8226
IGROV-1 = system: IGROV-1
PC-3 = system: PC-3
SR = system: SR
SW-620 = system: SW-620
MDA-MB-435 = system: MDA-MB-435
U-251 = system: U-251
CCRF-CEM = system: CCRF-CEM
NCI-H23 = system: NCI-H23
HCT-116 = system: HCT-116
OVCAR-3 = system: OVCAR-3
T47D = system: T47D
UACC-62 = system: UACC-62
A498 = system: A498
NCI-H522 = system: NCI-H522
HL-60 = system: HL-60
MOLT-4 = system: MOLT-4
UACC-257 = system: UACC-257
DU-145 = system: DU-145
SK-MEL-28 = system: SK-MEL-28
SK-MEL-5 = system: SK-MEL-5
SK-MEL-2 = system: SK-MEL-2
UO-31 = system: UO-31
EKVX = system: EKVX
HOP-92 = system: HOP-92
K562 = system: K562
ACHN = system: ACHN
Malme-3M = system: Malme-3M
SK-OV-3 = system: SK-OV-3
MDA-MB-231 = system: MDA-MB-231
CAKI-1 = system: CAKI-1
OVCAR-5 = system: OVCAR-5
NCI-H226 = system: NCI-H226
SN12C = system: SN12C
HCC 2998 = system: HCC 2998
M14 = system: M14
SF-268 = system: SF-268
HT-29 = system: HT-29
HCT-15 = system: HCT-15
KM12 = system: KM12
OVCAR-4 = system: OVCAR-4
SF-539 = system: SF-539
A549 = system: A549
SNB-19 = system: SNB-19
Hs-578T = system: Hs-578T
RXF 393 = system: RXF 393
MCF7 = system: MCF7
OVCAR-8 = system: OVCAR-8
NCI/ADR-RES = system: NCI/ADR-RES

SMILES: CCCCCCCCCCCCC/C=C/[C@H]1[C@@H](C(=O)OC)N1[S+]([O-])c1ccc(C)cc1 (stereo not given in full)
- GI50 (786-0): > 100 µM (inactive)
- GI50 (LOX IMVI): > 100 µM (inactive)
- GI50 (HOP-62): > 100 µM (inactive)
- GI50 (COLO 205): > 100 µM (inactive)
- GI50 (TK-10): > 100 µM (inactive)
- GI50 (BT-549): > 100 µM (inactive)
- GI50 (RPMI-8226): 12.1 µM (inactive)
- GI50 (IGROV-1): > 100 µM (inactive)
- GI50 (PC-3): > 100 µM (inactive)
- GI50 (SR): 21.3 µM (inactive)
- GI50 (SW-620): > 100 µM (inactive)
- GI50 (MDA-MB-435): > 100 µM (inactive)
- GI50 (U-251): > 100 µM (inactive)
- GI50 (CCRF-CEM): 52.5 µM (inactive)
- GI50 (NCI-H23): > 100 µM (inactive)
- GI50 (HCT-116): > 100 µM (inactive)
- GI50 (OVCAR-3): > 100 µM (inactive)
- GI50 (T47D): 22.9 µM (inactive)
- GI50 (UACC-62): > 100 µM (inactive)
- GI50 (A498): > 100 µM (inactive)
- GI50 (NCI-H522): 71.4 µM (inactive)
- GI50 (HL-60): 21.2 µM (inactive)
- GI50 (MOLT-4): 87.5 µM (inactive)
- GI50 (UACC-257): 36.3 µM (inactive)
- GI50 (DU-145): > 100 µM (inactive)
- GI50 (SK-MEL-28): > 100 µM (inactive)
- GI50 (SK-MEL-5): 35.8 µM (inactive)
- GI50 (SK-MEL-2): > 100 µM (inactive)
- GI50 (UO-31): > 100 µM (inactive)
- GI50 (EKVX): 88.3 µM (inactive)
- GI50 (HOP-92): > 100 µM (inactive)
- GI50 (K562): 31.3 µM (inactive)
- GI50 (ACHN): > 100 µM (inactive)
- GI50 (Malme-3M): > 100 µM (inactive)

SMILES: COc1ccccc1-c1cc(O)c2c(C)cc(C)nc2n1
- GI50 (SK-OV-3): > 100 µM (inactive)
- GI50 (LOX IMVI): 75.2 µM (inactive)
- GI50 (MDA-MB-231): 84.3 µM (inactive)
- GI50 (HOP-62): > 100 µM (inactive)
- GI50 (CAKI-1): 40.3 µM (inactive)
- GI50 (COLO 205): 36.1 µM (inactive)
- GI50 (TK-10): > 100 µM (inactive)
- GI50 (BT-549): 96.2 µM (inactive)
- GI50 (OVCAR-5): > 100 µM (inactive)
- GI50 (NCI-H226): > 100 µM (inactive)
- GI50 (SN12C): 70.1 µM (inactive)
- GI50 (HCC 2998): > 100 µM (inactive)
- GI50 (M14): 79.8 µM (inactive)
- GI50 (RPMI-8226): 38.4 µM (inactive)
- GI50 (SF-268): 84.3 µM (inactive)
- GI50 (IGROV-1): 30.5 µM (inactive)
- GI50 (SW-620): 61.7 µM (inactive)
- GI50 (HT-29): 56.8 µM (inactive)
- GI50 (HCT-15): 58.3 µM
- GI50 (CCRF-CEM): 47.9 µM (inactive)
- GI50 (KM12): 29.1 µM (inactive)
- GI50 (NCI-H23): 56.1 µM (inactive)
- GI50 (OVCAR-4): 56.1 µM (inactive)
- GI50 (SF-539): > 100 µM (inactive)
- GI50 (A549): 59.7 µM (inactive)
- GI50 (SNB-19): 73.3 µM (inactive)
- GI50 (Hs-578T): > 100 µM (inactive)
- GI50 (T47D): 8.13 µM (inactive)
- GI50 (UACC-62): 71.9 µM (inactive)
- GI50 (A498): 39.6 µM (inactive)
- GI50 (NCI-H522): 43.7 µM (inactive)
- GI50 (RXF 393): 63.7 µM (inactive)
- GI50 (MCF7): 46.8 µM (inactive)
- GI50 (MOLT-4): 30 µM (inactive)
- GI50 (UACC-257): 50.5 µM (inactive)
- GI50 (DU-145): > 100 µM (inactive)
- GI50 (SK-MEL-28): > 100 µM (inactive)
- GI50 (SK-MEL-2): 45.9 µM (inactive)
- GI50 (OVCAR-8): 90.2 µM (inactive)
- GI50 (UO-31): 47.1 µM (inactive)
- GI50 (EKVX): 67.5 µM (inactive)
- GI50 (HOP-92): 31.8 µM (inactive)
- GI50 (K562): 67.9 µM (inactive)
- GI50 (ACHN): 46.3 µM (inactive)
- GI50 (Malme-3M): 48 µM (inactive)
- GI50 (NCI/ADR-RES): 54.7 µM (inactive)
